Measurements taken from US8269017B2, “Compounds for the treatment of proliferative disorders” (Synta Pharmaceuticals Corporation, priority 2005, dated 2012).
“Also recorded” adds a separate entry of the source. Where two headings read alike, the source gives them in different places.

Legend:
[1] = system: MDA-435 (human breast carcinoma); assay: In vitro cytotoxicity, MTS assay, MDA-435; type: cell-based; conditions: MDA435, MDA-435 (Breast Cancer), 72 hours
Method: (§1) The in vitro cytotoxicity of the compounds of the invention was determined in the following human cell lines: HL-60 (T-cell leukemia), MDA-435 and MCF-7 (human breast carcinoma), NCI-H460 and H29 (colon carcinoma), DU145 (prostate carcinoma), and MES-SA and MES-SA/DX5 (uterine sarcoma). MES-SA is a model of uterine sarcoma, and the cell are sensitive to a number of chemotherapeutic agents including doxorubicin, dactinomycin, mitomycin C, taxol and bleomycin, but resistant to vinblastine and cisplatin. MES-SA/Dx5 was established in the presence of increasing concentrations of doxorubicin. […] All cells were purchased from ATCC.
(§2) The cell lines were maintained in RPMI1640 (GIBCO) supplemented with 10% FCS, 100 units/mL penicillin, 100 ug/ml streptomycin, and 2 mM L-glutamine. Cells were split every third day and diluted to a concentration of 2×10^5 cells/mL one day before the experiment was performed. All experiments were performed on exponentially growing cell cultures. Cell densities were 2.5×10^4 cells/mL in all experiments.
(§3) Compounds of the invention were prepared by dissolving the compound at a concentration of 10 mM in 100% DMSO. Final concentrations 10, 1, 0.1, 0.01 and 0.001 μM were obtained by diluting the stock solution directly into the tissue culture medium.

SB cells = assay: Induction of apoptosis in SB cells (Annexin V/PI, FACS); type: cell-based; conditions: 24 h; for % Apoptotic Cells Gated: 1 μM; for cytotoxicity at 1 µM: read-out: % Dead Cells Gated; for viability at 1 µM: read-out: % Live Cells Gated
Method: SB cells (2×10^5 cells/mL) were cultured in 12-well plates (2 mL/well) and were left untreated (negative control), treated with Taxol (positive control), or treated with a compound of the invention for 24 h at 37° C. After treatment, the cells were washed one time with 1×PBS and stained with FITC labeled anti-Annexin V and PI (10 μg/ml) for 15 min at room temperature. The cells were analyzed by FACSCalibur (Becton Dickinson).

H29 (colon carcinoma) = assay: In vitro cytotoxicity, MTS assay, H29; type: cell-based; conditions: Homo sapiens, 72 hours
Method: as §1, §2, §3

[2] = system: NCI-H460 (colon carcinoma); assay: In vitro cytotoxicity, MTS assay, NCI-H460; type: cell-based; conditions: Homo sapiens, 72 hours
Method: as §1, §2, §3

MES-SA (uterine sarcoma) = assay: In vitro cytotoxicity, MTS assay, MES-SA; type: cell-based, human; conditions: MES-SA (Uterine Carcinoma), 72 hours
Method: as §1, §2, §3

MDA-435 cells = assay: Cell cycle analysis in MDA-435 cells; type: cell-based, human; conditions: 20 h, Taxol 30 nM, Comp. 1 100 nM, Comp. 2 500 nM, Comp. 3 10 nM, Comp. 6 800 mM (so in the source), Comp. 46 50 nM
Method: MDA-435 cells were cultured in 6-well plates at 1×10^6 cells/well and were untreated (negative control), treated with Taxol (positive control), or treated with a compound of the invention at 37° C. for 20 h. The cells were detached with 1× trypsin and washed one time with PBS. Cycle TEST PLUS kit (BD PharMingen, Cat #340242) was used to stain the cells. Cell cycle was analyzed with FACScomp program (BS PharMingen).

[3] = system: DU145 (prostate carcinoma); assay: In vitro cytotoxicity, MTS assay, DU145; type: cell-based; conditions: Homo sapiens, DU-145, 72 hours
Method: as §1, §2, §3

HL-60 (T-cell leukemia) = assay: In vitro cytotoxicity, MTS assay, HL-60; type: cell-based, human; conditions: 72 hours
Method: as §1, §2, §3

MDA-435 = assay: Cytotoxicity in MDA-435 tumor cells (Cell Counting Kit 8); type: cell-based; conditions: Homo sapiens, MDA435, MDA-435 cells, 70 h
Method: Tumor cell line, MDA-435, was seeded in 96-well plates at 1×10^4 cells/well in DMEM medium and treated with compounds at different concentrations. Taxol was used as a positive control. The cells were incubated at 37° C. for 70 h. Viability of the cells was measured with Cell Counting Kit 8 (Dojindo, Cat #CK04). IC50 of the compounds was determined by Five-Parameter Logistic equation.

[4] = system: MCF-7 (human breast carcinoma); assay: In vitro cytotoxicity, MTS assay, MCF-7; type: cell-based; conditions: MCF7, MCF-7 (Breast Cancer), 72 hours
Method: as §1, §2, §3

[5] = system: MES-SA/DX5 (uterine sarcoma, MDR-1); assay: cells; type: cell-based; conditions: Homo sapiens, MDR1, 72 h, MES/DX5 (MDR-1), MTS assay
Method: as §1, §2, §3

[6] = system: human tumor cell line MDA-MB-435S; assay: Nude mouse xenograft, MDA-MB-435S (Example 10); type: in vivo
Method: (§4) Seven to eight week old, female Crl:CD-1-nuBR (nude) mice were obtained from Charles River Laboratories (Wilmington, Mass., USA). Animals were housed 4-5/cage in micro-isolators, with a 12 hr/12 hr light/dark cycle, acclimated for at least 1 week prior to use and fed normal laboratory chow ad libitum. Studies were conducted on animals between 8 and 10 weeks of age at implantation. To implant MDA-MB-4355 tumor cells into nude mice, the cells were trypsinized as above, washed in PBS and resusupended at a concentration of 50×10(6) cells/ml in PBS. Using a 27 gauge needle and 1 cc syringe, 0.1 ml of the cell suspension was injected into the corpus adiposum of nude mice. The corpus adiposum is a fat body located in the ventral abdominal vicera in the right quadrant of the abdomen at the juncture of the os coxae (pelvic bone) and the os femoris (femur).
Tumors were then permitted to develop in vivo until the majority reached an average of 100-200 mm^3 in tumor volume, which typically required 2-3 weeks following implantation. […] Tumor volumes (V) were calculated by caliper measurement of the width (W), length (L) and thickness (T) of tumors using the following formula: V=0.5236×(L×W×T). Animals were randomized into treatment groups so that the median tumor volumes of each group were similar at the start of dosing. % T/C values, as a measure of efficacy, were determined as follows: • (i) If ΔT>0: % T/C=[…] • (ii) If ΔT<0: % T/C=(ΔT/T0)×100 • (iii) ΔT=Change in median tumor volume between start of dosing and the end of study. • (iv) ΔC=Change in median tumor volume between start of dosing and the end of study. • (v) T0=Median tumor volume at start of dosing.
(§5) Compounds were formulated in either D5W (Compounds 169 and 174) or DRD (Compound 178). For formulations in D5W, solutions of test articles were prepared by dissolving the appropriate amounts of each compound in 5% dextrose in water (Abbott Laboratories, North Chicago, Ill., USA) by sonication in an ultrasonic water bath. For formulations in DRD, stock solutions of test articles were prepared by dissolving the appropriate amounts of each compound in dimethyl sulfoxide (DMSO) by sonication in an ultrasonic water bath. Stock solutions were prepared weekly, stored at −20° C. and diluted fresh each day for dosing. A solution of 20% Cremophore RH40 (polyoxyl 40 hydrogenated castor oil; BASF Corp., Aktiengesellschaft, Ludwigshafen, Germany) in 5% dextrose in water (Abbott Laboratories, North Chicago, Ill., USA) was also prepared by first heating 100% Cremophore RH40 at 50-60° C. until liquefied and clear, diluting 1:5 with 100% D5W, reheating again until clear and then mixing well. This solution was stored at room temperature for up to 3 months prior to use. […]

[7] = Body weight change in MDA-MB-435S xenograft study (Example 10); type: in vivo, nude mouse; conditions: i.v.
Method: as §4
as §5, with “use. To prepare DRD formulations for daily dosing, DMSO stock solutions were diluted 1:10 with 20% Cremophore RH40.” for “use.”

[8] = system: α-tubulin-YFP labeled microtubules in MCF7-α-tubulin-YFP cells; assay: Inhibition of tubulin polymerization in α-tubulin-YFP expressing cells (fluorescence imaging); type: cell-based; conditions: MCF7-α-tubulin-YFP cells treated with 1.0 μM compound
Method: Living cells were examined using a fluorescent microscope for α-tubulin-YFP expression.
CHO-α-tubulin-YFP or MCF7-α-tubulin-YFP cells were cultured in 2-well chambered cover-slips (Labtek (Campbell, Calif.) or Fisher Scientific) for 24 hours before treatment with a compound of the invention. For comparison of the effects of treatment on α-tubulin-YFP labeled microtubules with the compounds of the invention, CHO-α-tubulin-YFP or MCF7-α-tubulin-YFP cells were treated with the a compound of the invention, Taxol or equivalent concentrations of DMSO-containing media for various time periods before imaging. Tubulin-YFP fluorescence in living cells or fixed cells was captured using a standard filter for FITC and objectives of 20× or 60× magnification on a Nikon TE300 microscope with a Leica DC50 color digital camera (Leica, Bannockburn, Ill.) or a CoolSnap HQ monochrome CCD camera (Photonetrics, Tucson, Ariz.). The Leica DC50 and CoolSnapHQ cameras were controlled with Leica DC50 software and MetaVue/MetaMorph software, respectively (Universal Imaging Corp, Downingtown, Pa.).

[9] = Homo sapiens, HL-60, HL60 (Leukemia), read-out: IC50
[10] = Compound 169 at 2 mg/kg, Compound 174 at 4.55 mg/kg body weight, i.v., 1 time/week, 3 doses

SMILES | IC50 [1] [nM] | % Apoptotic Cells Gated (SB cells) [%] | cytotoxicity at 1 µM (SB cells) [%] | viability at 1 µM (SB cells) [%] | IC50 (H29 (colon carcinoma)) [nM] | IC50 [2] [nM] | IC50 (MES-SA (uterine sarcoma); Homo sapiens, read-out: IC50) [nM] | Apoptotic Population (%) (MDA-435 cells) | G0/G1 Phase (%) (MDA-435 cells) | G2/M Phase (%) (MDA-435 cells) | S Phase (%) (MDA-435 cells) | IC50 [3] [nM] | IC50 (HL-60 (T-cell leukemia); [9]) [nM] | IC50 (MDA-435) [nM] | IC50 [4] [nM] | IC50 [5] [nM] | Tubulin-YFP signal pattern in live cells [8] | other results
COc1cc(-c2oncc2-c2ccc3c(c2)OCCO3)cc(OC)c1OC [Compound 46, 4-(2,3-Dihydro-benzo[1,4]dioxin-6-yl)-5-(3,4,5-trimethoxy-phenyl)-isoxazole] | 50 | 19.04 | 17.3 | 51 | 50 | 50 | 50 | 9.88 | 19.67 | 28.18 | 37.98 | 100 | 50 | 21 | 50 | 50 |  | 
COc1ccc(-c2cnoc2-c2cc(OC)c(OC)c(OC)c2)cc1OP(=O)(O)O [Compound 178, Sodium 2-methoxy-5-[5-(3,4,5-trimethoxy-phenyl)-isoxazol-4-yl)-phenyl phosphate] |  |  |  |  |  |  |  |  |  |  |  |  |  |  |  |  |  | IC50 (MES-SA (uterine sarcoma); phosphate): 4 nM; efficacy on in vivo growth of MDA-MB-435S tumors ([6]; i.v. 3 times per week, dose escalation: 3 doses at 25, 3 at 37.5, 3 at 50 mg/kg, efficacy at 37.5 and 50 mg/kg, phosphate): began to show moderate efficacy; also recorded: began to show modest efficacy; IC50 (HL-60 (T-cell leukemia); HL60 (Leukemia), phosphate): 22 nM; overt toxicity (effect on body weights) ([7]; Compound 178 at 25, 37.5 or 50 mg/kg body weight, 3 times per week, phosphate): not overtly toxic; also recorded: not associated with overt toxicity
CCc1cc(-c2oncc2-c2ccc(I)cc2)c(O)cc1OC [Compound 4, 4-(4-Iodo-phenyl)-5-(2-hydroxy-4-methoxy-5-ethyl-phenyl)-isoxazole] | 50 | 19.05 | 20.1 | 52.8 | 50 | 50 | 50 |  |  |  |  | 50 | 50 | 232 | 50 | 50 |  | 
COc1cc(-c2oncc2-c2ccc(Br)cc2)cc(OC)c1OC [Compound 1, 4-(4-Bromo-phenyl)-5-(3,4,5-trimethoxy-phenyl)-isoxazole] |  | 18.36 | 14.4 | 60.1 |  |  |  | 11.35 | 19.15 | 32.60 | 37.60 |  |  | 132 |  |  | cytoplasmic pattern | 
CCc1cc(-c2oncc2-c2ccc(Br)cc2)c(O)cc1OC [Compound 6, 4-(4-Bromo-phenyl)-5-(2-hydroxy-4-methoxy-5-ethyl-phenyl)-isoxazole] |  | 14.17 | 17.3 | 59.2 |  |  |  | 10.59 | 18.45 | 35.96 | 35.55 |  |  | 461 |  |  | cytoplasmic pattern | 
COc1ccc(-c2cnoc2-c2cc(OC)c(OC)c(OC)c2)cc1NC(=O)CN.Cl [Compound 169, 2-Amino-N-{2-methoxy-5-[5-(3,4,5-trimethoxy-phenyl)-isoxazol-4-yl]-phenyl}-acetamide] |  |  |  |  |  |  | 3 |  |  |  |  |  | 7 |  |  | 3 |  | % T/C [6, 10]: 38%; in vivo growth rate of MDA-MB-435S tumors [6, 10]: substantially inhibited tumor growth; also recorded: substantially decreased the growth rate; overt toxicity (effect on body weights) ([7]; Compound 169 at 2 and 1 mg/kg, Compound 174 at 4.55 and 2.28 mg/kg body weight, 1 time per week, 3 doses): not overtly toxic; also recorded: not associated with overt toxicity
